Measurements from patent US12220412B2, “Methods for administering corticosteroids” (Sparrow Pharmaceuticals, Inc., priority 2018, dated 2025).

Legend:
[1] = Population pharmacokinetics model for Compound A from two clinical trials; type: in vivo, human
Method: On the basis of data from two Compound A clinical trials, a population pharmacokinetics model (FIG. 4) was developed using a maximal dose of 20 mg. The selected model to describe the pharmacokinetics of Compound A was a two-compartment disposition model, with a 4-compartment transit absorption, saturable binding from the central compartment, and first-order elimination. Inter-individual variability was implemented on clearance (CL), volume of distribution (V2), absorption rate constant (kA), second order association constant (Kon), first order dissociation constant (Koff), and total number of saturable binding receptors (R). This model had satisfactory goodness-of-fit and acceptable relative standard errors.
CL, kA, R, Kon, and Koff are defined above. BAV is relative bioavailability, kTR is a transit rate constant (equal to kA), k23 and k32 are transfer rate constants between central and peripheral compartments.
The covariate effect was moderate (25% increase of BAV in 88-year old subjects compared to 36-year old subjects).

[2] = tested on: Adults with painful diabetic peripheral neuropathy; test: 6-week randomized trial in adults with painful diabetic peripheral neuropathy (pain relief, glycemic control, lipids, blood pressure, weight); type: in vivo, human; set-up: Weight / HbA1c (%) / Plasma glucose / Urine glucose (% positive) / Cholesterol / Triglycerides / Systolic BP (mm Hg) / Diastolic BP (mm Hg): reference not given here
Method: Adults with painful diabetic peripheral neuropathy were randomized to treatment with SPI-62, placebo for SPI-62, or pregabalin (positive control) for 6 weeks. […] The trial was terminated. Descriptive analysis on parameters of glycemic control, blood lipids, blood pressure, and weight was conducted. […] As this was an exploratory analysis, statistical hypothesis tests were not performed.

[3] = target: HSD-1 (Homo sapiens, UniProt P28845); test: Urinary (tetrahydrocortisol+allotetrahydrocortisol)/tetrahydrocortisone ratio as indicator of HSD-1 activity in clinical trial subjects; type: in vivo; set-up: from tissue; host or cells: in vivo, human subjects; conditions: for mean HSD-1 ratio (significantly decreased HSD-1 activity): both days 1 and 18
Sequence of HSD-1 (P28845 whole entry): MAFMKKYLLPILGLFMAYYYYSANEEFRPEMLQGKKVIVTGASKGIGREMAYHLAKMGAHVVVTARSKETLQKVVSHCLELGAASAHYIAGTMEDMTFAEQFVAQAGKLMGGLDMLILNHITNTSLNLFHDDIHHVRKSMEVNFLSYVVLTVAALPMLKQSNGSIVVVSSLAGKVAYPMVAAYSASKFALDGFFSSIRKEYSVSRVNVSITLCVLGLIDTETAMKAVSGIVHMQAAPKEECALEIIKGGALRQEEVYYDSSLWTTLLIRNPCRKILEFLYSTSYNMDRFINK
Method: Following a minimum of a 10-hour fast, healthy adult racially diverse male and female subjects were administered Compound A (ASP3662) or placebo for Compound A with 240 mL of room temperature water. Subjects continued to fast from any food and drinks (water was allowed as desired except for 1 hour before and 1 hour after study drug administration) until 4 hours after study drug administration. Urine samples were collected for the measurement of cortisol, cortisone, tetrahydrocortisol (5α, 5β) and tetrahydrocortisone. The cumulative amount of each entity excreted in the urine was calculated for each subject from time zero to 24 hours after dosing (Ae24), from 24 hours after dosing to 48 hours after dosing (Ae48), and Aelast.
The ratio of 5α-tetrahydrocortisol+5β-tetrahydrocortisol to urinary tetrahydrocortisone was used as an indicator of HSD-1 activity. Compound A decreased the 5α-tetrahydrocortisol+5β-tetrahydrocortisol to urinary tetrahydrocortisone ratio with increasing dose compared to placebo, resulting in approximately 80% inhibition at 6 mg. […]

[4] = adults with painful diabetic peripheral neuropathy, 6 weeks treatment, descriptive analysis
[5] = elderly non-Japanese subjects, 20 mg, Day 1 single dose, 24 h urine
[6] = elderly non-Japanese subjects, 20 mg, Day 18 after daily doses Days 5 through 18, 24 h urine
[7] = healthy adult Japanese subjects, 10 mg, Day 1 single dose, 24 h urine
[8] = healthy adult Japanese subjects, 10 mg, Day 18 after daily doses Days 5 through 18, 24 h urine
[9] = healthy adult Japanese subjects, 20 mg, Day 1 single dose, 24 h urine
[10] = healthy adult Japanese subjects, 20 mg, Day 18 after daily doses Days 5 through 18, 24 h urine
[11] = healthy adult Japanese subjects, 50 mg, Day 1 single dose, 24 h urine
[12] = healthy adult Japanese subjects, 50 mg, Day 18 after daily doses Days 5 through 18, 24 h urine

Cn1c(-c2ccc(C(N)=O)cc2F)nnc1C(C)(C)Oc1c(F)cc(Cl)cc1F [Compound A]
increase of BAV (relative bioavailability), covariate effect of age ([1]; 88-year old subjects compared to 36-year old subjects): 25%
Covariate: age on BAV (relative bioavailability), estimate ([1]; population PK model): 0.200
Koff (first order dissociation constant, saturable binding), estimate ([1]; population PK model): 5.83e-05 s⁻¹
Kon (second order association constant, saturable binding), estimate ([1]; population PK model): 0.0682 µg⁻¹ h⁻¹
R (total number of saturable binding receptors), estimate ([1]; population PK model): 3170 nmol
V2 (volume of distribution), estimate ([1]; population PK model): 90.2 L/70 kg
amount of Compound A corresponding to estimated total number of saturable binding receptors ([1]; population PK model): 1.347 mg
k23 (transfer rate constant between central and peripheral compartments), estimate ([1]; population PK model): 0.00341 h^−1/(70 kg)^−0.25
k32 (transfer rate constant between central and peripheral compartments), estimate ([1]; population PK model): 0.0255 h^−1/(70 kg)^−0.25
kA (absorption rate constant), estimate ([1]; population PK model): 5.38 h⁻¹
CL (clearance), estimate ([1]; population PK model, doses up to 20 mg): 7.24 L/h/(70 kg)^0.75
Cholesterol [2, 4]: -0.48 ± 0.12 mM
Diastolic BP (mm Hg) [2, 4]: 0 ± 2 mm Hg
HbA1c (%) [2, 4]: −0.31 ± 0.11%
Plasma glucose [2, 4]: 0.084 ± 0.38 mM
Systolic BP (mm Hg) [2, 4]: −1 ± 3 mm Hg
Triglycerides [2, 4]: -0.11 ± 0.09 mM
Urine glucose (% positive) [2, 4]: −2.5 ± 3.0 % positive
Weight [2, 4]: -0.3 ± 0.3 kg
trends compared to placebo on HbA1c, plasma glucose, urine glucose, cholesterol and triglycerides (not on systolic or diastolic blood pressure or weight) ([2]; exploratory descriptive analysis, no hypothesis tests): Favorable numeric trends
pain relief compared to the placebo group ([2]; interim review after 150 subjects completed treatment): not any better
number of doses to achieve full HSD-1 inhibition ([3]; dose level 0.4 mg): 9 to 11 doses
number of doses to achieve full HSD-1 inhibition ([3]; dose level 0.7 mg): 5 to 6 doses
number of doses to achieve full HSD-1 inhibition ([3]; dose level 2 mg): 2 doses
HSD-1 ratio, Day 1 Mean [3, 5]: 0.17
HSD-1 ratio, Day 1 Median [3, 5]: 0.16
HSD-1 ratio, Day 18 Mean [3, 6]: 0.11
HSD-1 ratio, Day 18 Median [3, 6]: 0.11
mean HSD-1 ratio (significantly decreased HSD-1 activity) ([3]; elderly non-Japanese subjects, 20 mg): approximately 0.1
HSD-1 ratio (tetrahydrocortisol [5α + 5β]/tetrahydrocortisone), Day 1 Median [3, 7]: 0.19
HSD-1 ratio (tetrahydrocortisol [5α + 5β]/tetrahydrocortisone), Day 1 mean [3, 7]: 0.18
HSD-1 ratio (tetrahydrocortisol [5α + 5β]/tetrahydrocortisone), Day 18 Mean [3, 8]: 0.13
HSD-1 ratio (tetrahydrocortisol [5α + 5β]/tetrahydrocortisone), Day 18 Median [3, 8]: 0.12
HSD-1 ratio (tetrahydrocortisol [5α + 5β]/tetrahydrocortisone), Day 1 Median [3, 9]: 0.14
HSD-1 ratio (tetrahydrocortisol [5α + 5β]/tetrahydrocortisone), Day 1 mean [3, 9]: 0.14
HSD-1 ratio (tetrahydrocortisol [5α + 5β]/tetrahydrocortisone), Day 18 Mean [3, 10]: 0.09
HSD-1 ratio (tetrahydrocortisol [5α + 5β]/tetrahydrocortisone), Day 18 Median [3, 10]: 0.10
HSD-1 ratio (tetrahydrocortisol [5α + 5β]/tetrahydrocortisone), Day 1 Median [3, 11]: 0.14
HSD-1 ratio (tetrahydrocortisol [5α + 5β]/tetrahydrocortisone), Day 1 mean [3, 11]: 0.14
HSD-1 ratio (tetrahydrocortisol [5α + 5β]/tetrahydrocortisone), Day 18 Mean [3, 12]: 0.10
HSD-1 ratio (tetrahydrocortisol [5α + 5β]/tetrahydrocortisone), Day 18 Median [3, 12]: 0.09
mean HSD-1 ratio (significantly decreased HSD-1 activity) ([3]; healthy adult Japanese subjects, doses of 10 mg, 20 mg and 50 mg): 0.1 to 0.2
HSD-1 activity (urinary ratio) ([3]; healthy adult non-Japanese subjects, 2 mg, 0.7 mg, 0.4 mg and 0.2 mg cohorts, single dose Day 1 then daily doses): significantly decreased
